Values quoted from earlier work as cited in patent EP0916677A1, “METHOD FOR SEARCHING FOR PEPTIDES AND PROCESS FOR PRODUCING COMPOUNDS” (YAMANOUCHI PHARMACEUTICAL CO., LTD., priority 1996, dated 1998).

Biological target: T1, trypsin (Bos taurus, UniProt P00760)
T1 sequence (P00760 24-246): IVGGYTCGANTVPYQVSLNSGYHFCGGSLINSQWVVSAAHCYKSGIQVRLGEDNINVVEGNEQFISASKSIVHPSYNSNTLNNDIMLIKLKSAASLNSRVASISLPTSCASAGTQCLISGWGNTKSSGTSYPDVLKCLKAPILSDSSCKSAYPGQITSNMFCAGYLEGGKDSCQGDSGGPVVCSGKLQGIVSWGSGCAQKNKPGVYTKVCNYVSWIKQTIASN
Details: known from Eichler et al., Biochemistry, 1993, 32, 11035

trypsin inhibitory activity: high
Substance: Ac-TTKIFT-NH2 [TTKIFT, Ac-TTKIFT-NH2]
